Test system: 817829-284-R-J1-PDC complex spheroid viability
Experiment: Anticancer human tumor 817829-284-R-J1-PDC patient-derived colon adenocarcinoma cell line growth inhibition [POLQ]
Conditions: for IC50: curve of first compound; for viability, T/C: stronger effect = lower value; active means viability on the fitted dose curve at most 10% of control; inactive means the rest
Protocol: Multicellular complex tumor spheroid response to Polymerase (POL) inhibitors (novobiocin, ART-558, RP6685) in combination with a variety of drugs and investigational agents in selected tumor cell lines
The POL inhibitors (novobiocin, ART-558, and RP6685) were evaluated both individually and in combination with standard of care and investigational anticancer small molecules within a complex spheroid model of solid tumors. . Complex spheroids include a stromal component modeled by human endothelial cells (HUVEC) and fibroblasts modeled by human mesenchymal stem cells (MSCs). The concentration ranges selected for each drug and investigational agent were based upon clinically achievable concentrations if the clinical Cmax of the agent was known.
Compounds. The drugs and investigational agents: novobiocin (NSC847541), ART-558 (NSC835418), RP-6685 (NSC848927), peposertib (NSC802822), ceralasertib (NSC780249), elimusertib (NSC800525), camonsertib (NSC841442), AZD-1390 (NSC803789), olaparib (NSC753686), talazoparib (NSC767125), rucaparib (NSC756644), sotorasib (NSC818433), MRTX-1133 (NSC836407), SN-38 (NSC673596), topotecan (NSC609699), epotoside (NSC141540), doxorubicin (NSC123127), gemcitabine (NSC613327), 5-fluorouracil (NSC19893), paclitaxel (NSC125973), vemurafenib (NSC761431), MSA-2 (NSC828583), SN-011 (NSC837082), adavosertib (NSC754352), prexasertib (NSC758257), carboplatin (NSC241240) and oxaliplatin (NSC266046), were obtained from the National Cancer Institute (NCI) Developmental Therapeutics Program Chemical Repository (21). The FDA-approved anticancer drug set is available from the Developmental Therapeutics Program at https://dtp.cancer.gov/organization/dscb/obtaining/. […] The stock solutions were prepared in dimethyl sulfoxide (DMSO, Sigma-Aldrich, St. Louis, MO, cat. D2650), except for the platinum compounds which were prepared in saline (Quality Biological, Gaithersburg, MD, cat. 114-055-101), at 800-fold the tested concentration and stored at -70 degrees C prior to their use. All drugs and investigational agents were tested over a range starting from a high concentration at or near the clinical Cmax and decreasing in half-log increments. If the clinical Cmax for an agent had not been determined, the highest concentration tested was 10 microM, except for SN-38, which was tested at a high concentration of 1 microM.
Cell Culture. All cells were maintained in an incubator at 37 degrees C and 5% CO2 with 95% humidity. The PDC lines were cultured according to standard operating procedures established by the NCI PDMR (https://pdmr.cancer.gov). Table 3 of the manuscript, lists the cell lines along with the number of the three cell types plated to form the mct-spheroids and media for tumor cell growth. After thawing, all PDC lines, except 997537-175-T-J1-PDC and 415267-285-R-J2-PDC, were cultured in Matrigel-coated flasks prepared with a working solution of 1X Ham's F-12 nutrient mix, without supplementation (Thermo Fisher Scientific, cat. 11765054), 100 U/mL penicillin-streptomycin (Thermo Fisher Scientific, cat. 15140122), and 2.5% Matrigel (Corning Inc., Corning, NY, cat. 354248) for the first three passages. The two PDC lines 997537-175-T-J1-PDC and 415267-285-R-J2-PDC were cultured on uncoated flasks. The 857933-349-R-J2-PDC line was cultured in 6C/Colon 1B media containing advanced DMEM/F-12 (Thermo Fisher Scientific, cat. 12634028), 10 mM HEPES (Thermo Fisher Scientific, cat. 15630080), 1X GlutaMAX supplement (Thermo Fisher Scientific, cat. 35050061), 0.1 mg/mL primocin (InvivoGen, San Diego, CA, cat. ant-pm-2), 10% defined fetal bovine serum, heat inactivated (HyClone Laboratories Inc., Logan, UT, cat. SH30070.03HI), 50% L-WRN conditioned media (ATCC, cat. CRL-3276), 1.25 mM N-Acetyl-L-cysteine (Sigma-Aldrich, cat. A9165), 10 mM nicotinamide (Sigma-Aldrich, cat. N0636), 1X B-27 supplement (Thermo Fisher Scientific, cat. 17504044), 1X N-2 supplement (Thermo Fisher Scientific, cat. […]

[1] = second compound 0.0316 µM, first compound 0.00316 µM
[2] = second compound 0.0316 µM, first compound 0.01 µM
[3] = second compound 0.0316 µM, first compound 0.0316 µM
[4] = second compound 0.0316 µM, first compound 0.1 µM
[5] = second compound 0.1 µM, first compound 0.00316 µM
[6] = second compound 0.1 µM, first compound 0.01 µM
[7] = second compound 0.1 µM, first compound 0.0316 µM
[8] = second compound 0.1 µM, first compound 0.1 µM
[9] = second compound 0.316 µM, first compound 0.00316 µM
[10] = second compound 0.316 µM, first compound 0.01 µM
[11] = second compound 0.316 µM, first compound 0.0316 µM
[12] = second compound 0.316 µM, first compound 0.1 µM
[13] = second compound 1 µM, first compound 0.00316 µM
[14] = second compound 1 µM, first compound 0.01 µM
[15] = second compound 1 µM, first compound 0.0316 µM
[16] = second compound 1 µM, first compound 0.1 µM
[17] = second compound 3.16 µM, first compound 0.00316 µM
[18] = second compound 3.16 µM, first compound 0.01 µM
[19] = second compound 3.16 µM, first compound 0.0316 µM
[20] = second compound 3.16 µM, first compound 0.1 µM
[21] = second compound 10 µM, first compound 0.00316 µM
[22] = second compound 10 µM, first compound 0.01 µM
[23] = second compound 10 µM, first compound 0.0316 µM
[24] = second compound 10 µM, first compound 0.1 µM
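Further: spheroids exposed to compounds for 7 days.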
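Wherever viability, T/C is given: 100% = DMSO vehicle-treated spheroids.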

CC[C@@]1(O)C(=O)OCc2c1cc1n(c2=O)Cc2cc3c(CN(C)C)c(O)ccc3nc2-1 + COC1C(OC(N)=O)C(O)C(Oc2ccc3c(O)c(NC(=O)c4ccc(O)c(CC=C(C)C)c4)c(=O)oc3c2C)OC1(C)C
5.58 nM: IC50 (second compound 0.316 µM)
4.86 nM: IC50 (second compound 0.0316 µM)
5.89 nM: IC50 (second compound 10 µM)
6.13 nM: IC50 (second compound 0.1 µM)
inactive: viability, T/C (second compound 0.0316 µM, first compound 0.000316 µM) 80.6% | viability, T/C (second compound 0.0316 µM, first compound 0.001 µM) 87.4% | viability, T/C [1] 58.6% | viability, T/C [2] 32.5% | viability, T/C [3] 21.7% | viability, T/C [4] 16.1% | viability, T/C (second compound 0.1 µM, first compound 0.000316 µM) 69.7% | viability, T/C (second compound 0.1 µM, first compound 0.001 µM) 81.7% | viability, T/C [5] 76.2% | viability, T/C [6] 30.9% | viability, T/C [7] 21.4% | viability, T/C [8] 15.7% | viability, T/C (second compound 0.316 µM, first compound 0.000316 µM) 74.4% | viability, T/C (second compound 0.316 µM, first compound 0.001 µM) 78.8% | viability, T/C [9] 57.8% | viability, T/C [10] 40.8% | viability, T/C [11] 20.1% | viability, T/C [12] 17.3% | viability, T/C (second compound 1 µM, first compound 0.000316 µM) 83.2% | viability, T/C (second compound 1 µM, first compound 0.001 µM) 106% | viability, T/C [13] 84.1% | viability, T/C [14] 38.6% | viability, T/C [15] 20.2% | viability, T/C [16] 16.2% | viability, T/C (second compound 3.16 µM, first compound 0.000316 µM) 106% | viability, T/C (second compound 3.16 µM, first compound 0.001 µM) 78.2% | viability, T/C [17] 99.8% | viability, T/C [18] 38.8% | viability, T/C [19] 20.5% | viability, T/C [20] 18.4% | viability, T/C (second compound 10 µM, first compound 0.000316 µM) 97.6% | viability, T/C (second compound 10 µM, first compound 0.001 µM) 87.6% | viability, T/C [21] 69.3% | viability, T/C [22] 34% | viability, T/C [23] 20.6% | viability, T/C [24] 19.1%
7.95 nM: IC50 (second compound 3.16 µM)
7.53 nM: IC50 (second compound 1 µM)

CCc1c2c(nc3ccc(O)cc13)-c1cc3c(c(=O)n1C2)COC(=O)[C@]3(O)CC + COC1C(OC(N)=O)C(O)C(Oc2ccc3c(O)c(NC(=O)c4ccc(O)c(CC=C(C)C)c4)c(=O)oc3c2C)OC1(C)C
inactive: viability, T/C [1] 25.5% | viability, T/C [2] 17.6% | viability, T/C [3] 10.6% | viability, T/C [5] 17.9% | viability, T/C [6] 16.7% | viability, T/C [7] 11% | viability, T/C [9] 21.2% | viability, T/C [10] 15% | viability, T/C [11] 11.7% | viability, T/C [13] 18.1% | viability, T/C [14] 16.1% | viability, T/C [15] 11.3% | viability, T/C [17] 14.1% | viability, T/C [18] 16.3% | viability, T/C [19] 11% | viability, T/C [21] 23.3% | viability, T/C [22] 14.8% | viability, T/C [23] 12.8%
< 3.16 nM: IC50 (second compound 0.0316 µM) | IC50 (second compound 0.1 µM) | IC50 (second compound 0.316 µM) | IC50 (second compound 1 µM) | IC50 (second compound 3.16 µM) | IC50 (second compound 10 µM)
active: viability, T/C [4] 8.89% | viability, T/C (second compound 0.0316 µM, first compound 0.316 µM) 5.32% | viability, T/C (second compound 0.0316 µM, first compound 1 µM) 3.77% | viability, T/C [8] 7% | viability, T/C (second compound 0.1 µM, first compound 0.316 µM) 5.78% | viability, T/C (second compound 0.1 µM, first compound 1 µM) 3% | viability, T/C [12] 8.14% | viability, T/C (second compound 0.316 µM, first compound 0.316 µM) 5.95% | viability, T/C (second compound 0.316 µM, first compound 1 µM) 2.76% | viability, T/C [16] 7.95% | viability, T/C (second compound 1 µM, first compound 0.316 µM) 8.47% | viability, T/C (second compound 1 µM, first compound 1 µM) 3.04% | viability, T/C [20] 7.05% | viability, T/C (second compound 3.16 µM, first compound 0.316 µM) 4.82% | viability, T/C (second compound 3.16 µM, first compound 1 µM) 3.32% | viability, T/C [24] 6.77% | viability, T/C (second compound 10 µM, first compound 0.316 µM) 5.07% | viability, T/C (second compound 10 µM, first compound 1 µM) 2.89%
